Results reported in patent US20240165112A1, “THERAPY FOR THE TREATMENT OF CANCER” (Bristol-Myers Squibb Company, priority 2022, published 2024).
pEC50: −log10 of the molar value.

Legend:
4T1.2 cell line = test: 2D cell line viability assay (cell confluence); assay type: cell-based, murine; settings: Mus musculus, 4T1.2, 96 h
From the text: (§1) FIGS. 4A-4E illustrate the effects of Compound 1 on the Potency of Paclitaxel in a 2D Cell Line Viability Assay. […] Data points indicate mean and Standard Deviation of 2 biological replicates. Graphs are representative of at least 2 independent experiments. […] Abbreviations: DMSO, dimethylsulfoxide.

EMT6 cell line = test: 2D cell line viability assay (cell confluence); assay type: cell-based, murine; settings: Mus musculus, EMT6, 96 h, 4 days
From the text: as §1

A549 cell line = test: 2D cell line viability assay (cell confluence); assay type: cell-based; settings: Homo sapiens, A549, 96 h, 4 days
From the text: as §1

HT29 cell line = test: 2D cell line viability assay (cell confluence); assay type: cell-based; settings: Homo sapiens, HT-29, 96 h, 4 days
From the text: as §1

NCI-H460 cell line = test: 2D cell line viability assay (cell confluence); assay type: cell-based; settings: Homo sapiens, NCI-H460, 96 h, 4 days
From the text: as §1

[1] = system: LXFE2478 organoid, NSCLC (squamous subtype); test: 3D clonogenic assay in patient derived organoids; assay type: cell-based, human; settings: for Combination activity 5 μM Compound 1 (cAUC % reduction): chemotherapy dose titration + 5 μM Compound 1 vs chemotherapy alone; for Combination activity 20 μM Compound 1 (cAUC % reduction): chemotherapy dose titration + 20 μM Compound 1 vs chemotherapy alone
Experimental: (§2) Five tumor cell lines (4T1.2, A549, EMT6, NCI-H460, and HT29) were treated with a range of paclitaxel or 5-FU concentrations in the presence of dimethlylsulfoxide (DMSO), 5 μM Compound 1, or 20 μM Compound 1. Cells were imaged 4 days after treatment and percent confluence was assessed by image quantification. EC50 values for cell confluence were used to assess chemotherapy potency. Eleven patient-derived tumor organoids (MAXFTN449, MAXFTN2990, PAXF1657, PAXF2131, CXF1256, CXF2129, CXF2061, LXFE2478, LXFE690, LXFA677, LXFA644) were seeded in a 3D matrix and treated with a range of paclitaxel, 5-FU, SN38, Gemcitabine, oxaliplatin, and carboplatin concentrations in the presence of DMSO, 5 μM Compound 1, or 20 μM Compound 1. After 8 to 13 days in culture, colonies were stained, imaged, and counted. A dose response curve was generated for chemotherapy alone or chemotherapy in combination with 5 or 20 μM Compound 1. Combination activity was defined as a percentage of the area under the chemotherapy dose response curve (cAUC) for Compound 1 combination groups compared to the cAUC of chemotherapy alone.
(§3) For combination experiments, working stock solutions of all compounds were prepared in DMSO at concentrations of 660-fold the highest test concentration used and stored at −20° C. Platin compounds were prepared freshly on each treatment day. On each day of an experiment, an aliquot of the working stock solutions was used and stored at room temperature prior to and during treatment. First, 1:2 dilutions of 660-fold concentrated working stocks were prepared in DMSO (in case of monotherapy controls), or equal amounts of the compound working stocks were mixed (in case of drug combinations). Then, different dilutions of these 330-fold concentrated solutions were prepared in DMSO to give an 8×2 matrix combination layout with conditions. The DMSO dilutions were further diluted […] into cell culture medium (IMDM, supplemented with 20% (v/v) fetal bovine serum, and 50 μg/mL gentamicin) in an intermediate dilution plate. Finally, 10 μL taken from the intermediate dilution plate were transferred to 140 μL of cells and medium per well of the final assay plate. Thus, the DMSO dilutions used for the mono- and the combination-treatment were diluted 1:660, and the DMSO concentration in the assay was […].
(§4) Tumors were passaged as subcutaneous xenografts in NMRI nu/nu mice. At a tumor volume of 400 to 1000 mm^3, tumor-bearing mice were euthanized, and tumors were collected under sterile conditions without delay. Tumors were mechanically disaggregated and subsequently incubated with an enzyme cocktail consisting of collagenase type IV (41 U/mL), DNase I (125 U/mL), hyaluronidase type III (100 U/mL), and dispase II (1 U/mL) in RPMI 1640 medium at 37° C. for 60 to 120 minutes. Cells were passed through sieves of 100 μm and 40 μm mesh size, and washed with RPMI 1640 medium. The percentage of viable cells was determined in a Neubauer-hemocytometer using trypan blue exclusion. Aliquots of the cells were frozen down and stored in liquid nitrogen vapor phase. On each day of an experiment, a frozen aliquot of tumor cells was thawed and used for preparation of assay plates.
(§5) The clonogenic assay was carried out in a 96 well plate format using ultra low attachment plates. For each test, plates were prepared as follows: each test well contained a layer of semi-solid medium with tumor cells (50 μL), and a second layer of medium supernatant with or without test compound (100 μL). The cell layer consisted of […] to 12.5×10^3 tumor cells per well, which were seeded in 50 μL/well cell culture medium (IMDM, supplemented with 20% (v/v) fetal bovine serum, 50 μg/mL gentamicin, and 0.4% (w/v) agar). After 24 hours, the soft-agar layer was covered with 90 μL of the same culture medium without agar, and 10 μL of control medium or test compound after serial dilution in DMSO for the duration of the experiment (continuous exposure, 100 μL drug overlay).

[2] = system: LXFE690 organoid, NSCLC (squamous subtype); test: 3D clonogenic assay in patient derived organoids; assay type: cell-based, human; settings: for Combination activity 5 μM Compound 1 (cAUC % reduction): chemotherapy dose titration + 5 μM Compound 1 vs chemotherapy alone; for Combination activity 20 μM Compound 1 (cAUC % reduction): chemotherapy dose titration + 20 μM Compound 1 vs chemotherapy alone
Experimental: as §2, §3, §4, §5

[3] = system: MAXFTN2990 organoid, breast cancer (triple negative); test: 3D clonogenic assay in patient derived organoids; assay type: cell-based, human; settings: for Combination activity 20 μM Compound 1 (cAUC % reduction): chemotherapy dose titration + 20 μM Compound 1 vs chemotherapy alone
Experimental: as §2, §3, §4, §5

[4] = system: MAXFTN449 organoid, breast cancer (triple negative); test: 3D clonogenic assay in patient derived organoids; assay type: cell-based, human; settings: for Combination activity 20 μM Compound 1 (cAUC % reduction): chemotherapy dose titration + 20 μM Compound 1 vs chemotherapy alone
Experimental: as §2, §3, §4, §5

[5] = system: PAXF1657 organoid, pancreatic cancer; test: 3D clonogenic assay in patient derived organoids; assay type: cell-based, human; settings: for Combination activity 20 μM Compound 1 (cAUC % reduction): chemotherapy dose titration + 20 μM Compound 1 vs chemotherapy alone
Experimental: as §2, §3, §4, §5

[6] = system: PAXF2131 organoid, Pancreatic cancer; test: 3D clonogenic assay in patient derived organoids; assay type: cell-based, human; settings: for Combination activity 20 μM Compound 1 (cAUC % reduction): chemotherapy dose titration + 20 μM Compound 1 vs chemotherapy alone
Experimental: as §2, §3, §4, §5

[7] = system: LXFA644 organoid, NSCLC (adenocarcinoma subtype); test: 3D clonogenic assay in patient derived organoids; assay type: cell-based, human; settings: for Combination activity 5 μM Compound 1 (cAUC % reduction): chemotherapy dose titration + 5 μM Compound 1 vs chemotherapy alone
Experimental: as §2, §3, §4, §5

[8] = system: LXFA677 organoid, NSCLC (adenocarcinoma subtype); test: 3D clonogenic assay in patient derived organoids; assay type: cell-based, human
Experimental: as §2, §3, §4, §5

[9] = in the presence of 5 μM Compound 1
[10] = in the presence of 20 μM Compound 1
[11] = chemotherapy dose titration + 5 μM Compound 1 vs chemotherapy alone
[12] = chemotherapy dose titration + 20 μM Compound 1 vs chemotherapy alone

CC(=O)O[C@H]1C(=O)[C@@]2(C)[C@H]([C@H](OC(=O)c3ccccc3)[C@]3(O)C[C@H](OC(=O)[C@H](O)[C@@H](NC(=O)c4ccccc4)c4ccccc4)C(C)=C1C3(C)C)[C@]1(OC(C)=O)CO[C@@H]1C[C@@H]2O (relative stereo) [Paclitaxel, (1S,2S,3R,4S,7R,9S,10S,12R,15S)-4,12-diacetoxy-15-{[(2R,3S)-3-(benzoylamino)-2-hydroxy-3-phenylpropanoyl]oxy}-1,9-dihydroxy-10,14,17,17-tetramethyl-11-oxo-6-oxatetracyclo[11.3.1.0˜3,10˜0.0˜4,7˜]heptadec-13-en-2-yl rel-benzoate]
pEC50 (4T1.2 cell line; 4 days after treatment, in the absence of Compound 1): 7.32 | pEC50 (4T1.2 cell line; 4 days, in the presence of 5 μM Compound 1): 7.80 | pEC50 (4T1.2 cell line; 4 days, in the presence of 20 μM Compound 1): 8.47 | pEC50 (EMT6 cell line; in the absence of Compound 1): 7.72 | pEC50 (EMT6 cell line; [9]): 8.26 | pEC50 (EMT6 cell line; [10]): 8.72 | pEC50 (A549 cell line; in the absence of Compound 1): 8.80 | pEC50 (A549 cell line; [9]): 8.80 | pEC50 (A549 cell line; [10]): 9.00 | pEC50 (HT29 cell line; in the absence of Compound 1): 8.74 | pEC50 (HT29 cell line; [9]): 8.72 | pEC50 (HT29 cell line; [10]): 8.74 | pEC50 (NCI-H460 cell line; in the absence of Compound 1): 8.19 | pEC50 (NCI-H460 cell line; [9]): 8.54 | pEC50 (NCI-H460 cell line; [10]): 8.64 | Combination activity 5 μM Compound 1 (cAUC % reduction) [1]: 46% | Combination activity 20 μM Compound 1 (cAUC % reduction) [1]: 45% | Combination activity 20 μM Compound 1 (cAUC % reduction) ([1]; listed as paclitaxel): 45% | Combination activity 5 μM Compound 1 (cAUC % reduction) [2]: 87% | Combination activity 20 μM Compound 1 (cAUC % reduction) [2]: 94% | Combination activity 20 μM Compound 1 (cAUC % reduction) ([2]; listed as paclitaxel): 94% | Combination activity 5 μM Compound 1 (cAUC % reduction) [3, 11]: 63% | Combination activity 20 μM Compound 1 (cAUC % reduction) [3]: 77% | Combination activity 20 μM Compound 1 (cAUC % reduction) ([3]; listed as paclitaxel): 77% | Combination activity 5 μM Compound 1 (cAUC % reduction) [4, 11]: 57% | Combination activity 20 μM Compound 1 (cAUC % reduction) [4]: 42% | Combination activity 20 μM Compound 1 (cAUC % reduction) ([4]; listed as paclitaxel): 42% | Combination activity 5 μM Compound 1 (cAUC % reduction) [5, 11]: 50% | Combination activity 20 μM Compound 1 (cAUC % reduction) [5]: 64% | Combination activity 20 μM Compound 1 (cAUC % reduction) ([5]; listed as paclitaxel): 64% | Combination activity 5 μM Compound 1 (cAUC % reduction) [6, 11]: 58% | Combination activity 20 μM Compound 1 (cAUC % reduction) [6]: 71% | Combination activity 20 μM Compound 1 (cAUC % reduction) ([6]; listed as paclitaxel): 71%

N.N.O=C([O-])C1(C(=O)[O-])CCC1.[Pt+2] [Carboplatin, carboplatin]
Combination activity 5 μM Compound 1 (cAUC % reduction) [7]: 5% | Combination activity 5 μM Compound 1 (cAUC % reduction) ([7]; listed as carboplatin): 50% | Combination activity 20 μM Compound 1 (cAUC % reduction) [7, 12]: 19% | Combination activity 5 μM Compound 1 (cAUC % reduction) [8, 11]: 7% | Combination activity 20 μM Compound 1 (cAUC % reduction) [8, 12]: 14% | Combination activity 5 μM Compound 1 (cAUC % reduction) [1]: 27% | Combination activity 20 μM Compound 1 (cAUC % reduction) [1]: 3% | Combination activity 5 μM Compound 1 (cAUC % reduction) [2]: 73% | Combination activity 20 μM Compound 1 (cAUC % reduction) [2]: 80%
